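Compound exposure: 48 hours, 5 concentrations, 96-well plates. GI50 = concentration required for 50% inhibition of growth. The concentration for full growth arrest is given as TGI.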
Key:
Experiment in all cases: inhibition of tumour cell growth, NCI panel, 48 h
HCC-2998 colon = test system: HCC-2998 colon
NCI-H23 lung = test system: NCI-H23 lung
OVCAR-4 ovarian = test system: OVCAR-4 ovarian
SF-295 CNS = test system: SF-295 CNS
SR leukemia = test system: SR leukemia
TK-10 renal = test system: TK-10 renal
MDA-MB-435 = test system: MDA-MB-435
OVCAR-3 ovarian = test system: OVCAR-3 ovarian
SF-539 CNS = test system: SF-539 CNS
UACC-62 melanoma = test system: UACC-62 melanoma

SMILES | TGI (HCC-2998 colon) [µM] | TGI (NCI-H23 lung) [µM] | TGI (OVCAR-4 ovarian) [µM] | TGI (SF-295 CNS) [µM] | TGI (SR leukemia) [µM] | TGI (TK-10 renal) [µM] | TGI (MDA-MB-435) [µM] | TGI (OVCAR-3 ovarian) [µM] | TGI (SF-539 CNS) [µM] | TGI (UACC-62 melanoma) [µM] | GI50 (MDA-MB-435) [µM] | GI50 (NCI-H23 lung) [µM] | GI50 (OVCAR-4 ovarian) [µM] | GI50 (SF-295 CNS) [µM] | GI50 (SF-539 CNS) [µM] | GI50 (TK-10 renal) [µM] | GI50 (HCC-2998 colon) [µM] | GI50 (OVCAR-3 ovarian) [µM] | GI50 (SR leukemia) [µM] | GI50 (UACC-62 melanoma) [µM]
C[N+]1(C)CCCC(C#N)(c2ccccc2)CC1 (centres undefined) | > 100 | > 100 | > 100 | > 100 | > 100 | > 100 |  |  |  |  |  |  |  |  |  |  |  |  |  | 
O=C(NNC(=O)c1ccco1)c1ccco1 |  |  | > 100 | > 100 | > 100 | > 100 | > 100 | > 100 | > 100 | > 100 |  |  |  |  |  |  |  |  |  | 
Cc1ccc(S(=O)(=O)OC[C@@]2(C)CC[C@]3(C)CC[C@]4(C)C(=C3C2)C=C[C@@H]2[C@@]3(C)CCCNC(C)(C)[C@@H]3CC[C@]24C)cc1 |  | 3.42 | 3.16 | 3.29 |  | 3.59 | 3.07 |  | 3.11 |  | 1.64 | 1.82 | 1.66 | 1.78 | 1.71 | 1.88 |  |  |  | 
N#C[S-].[La+3].c1ccc(-c2ccccn2)nc1.c1ccc(-c2ccccn2)nc1.c1ccc(-c2ccccn2)nc1 | > 100 | > 100 | > 100 | 71.3 | > 100 | > 100 |  | > 100 | > 100 | 50.3 |  | 29.1 | 20.4 | 12.3 | 33.2 | 15.7 | 17.4 | 64.6 | 34.2 | 19.5
CC(=O)c1csc2c1C(=O)c1ccccc1C2=O | 3.2 | 3.59 | 18.3 | 3 |  | 4.99 | 3.97 | > 100 | 5.65 | 3.73 |  |  |  |  |  |  |  |  |  | 
CCN(CC)c1c(C(C)(C)C)c(=O)n2ccsc2c1OC(C)=O | 32.2 | 30.7 | 28.9 | 30.7 |  | 34.7 | 32.5 | 30.8 | 33.3 | 34.5 |  |  |  |  |  |  |  |  |  | 
COc1ccc(OC)c2c(C(C)=O)cccc12 | > 100 | > 100 |  | > 100 | > 100 | > 100 |  | > 100 | > 100 | > 100 |  |  |  |  |  |  |  |  |  | 
O=C(/C=C/c1ccc(OCc2ccccc2)cc1)NCc1ccc(C(=O)NCCc2ccccc2)cc1 | > 100 | > 100 | > 100 | > 100 |  | > 100 | > 100 | > 100 | > 100 | > 100 |  |  |  |  |  |  |  |  |  | 
CCOC(=O)[C@@]12C[C@](/C=C/OC)(O[Si](C)(C)C)[C@@]13c1cc(OC)c(OC)cc1CCN3C(=O)C2=O |  | > 100 | > 100 | > 100 | > 100 | > 100 | > 100 | > 100 | > 100 | > 100 |  |  |  |  |  |  |  |  |  | 
COC(=O)[C@@H]1c2c(oc3cc(CO)cc(O)c3c2=O)C=C[C@H]1O |  | 36 | 12 | 35.7 | > 100 | 6.8 | 15.5 | 20.7 | 9.41 | 25 |  |  |  |  |  |  |  |  |  | 
Cc1c2cc[n+](Cc3ccc(I)cc3)cc2c(C)c2c1[nH]c1ccccc12 | 5.25 | 9.13 |  | > 9.98 |  |  |  | 3.72 | > 15.8 | 16.6 |  |  |  |  |  |  |  |  |  | 
O=c1cc(NNc2cccc3ccccc23)[nH]c(=O)[nH]1 | 35.6 | 28.9 | 31.2 | 31.4 |  | 33.8 | 30.7 | 27.3 | 29 | 31.8 |  |  |  |  |  |  |  |  |  | 
CCOC(=O)c1ccc(N(CCOS(C)(=O)=O)CCOS(C)(=O)=O)cc1 | > 100 | > 100 | > 100 | > 100 |  | > 100 | > 100 | > 100 | 62.1 | 77.6 |  |  |  |  |  |  |  |  |  | 
COc1cc2c(oc(=O)c3c4occc4cc(OC)c23)c2cccc(O)c12 | > 100 | > 100 | > 100 | > 100 |  | > 100 |  | > 100 | > 100 | > 100 |  |  |  |  |  |  |  |  |  | 
Cc1c(C#N)c2nnn(-c3cccc(Cl)c3)c(=O)n2c1-c1ccccc1 | 18.2 | > 100 | > 100 | 4.98 | 2.69 | > 100 |  | 5.59 | 10.4 | 36 |  |  |  |  |  |  |  |  |  | 
CC(=O)N[C@@H](Cc1ccc(O)cn1)C(=O)NCc1ccc(Cl)cc1 | > 100 | > 100 | > 100 | > 100 |  | > 100 | > 100 | > 100 | > 100 | > 100 |  |  |  |  |  |  |  |  |  | 
CC(=O)Oc1ccc2cc(Oc3cc(Cl)c(Cl)cc3Cl)c(=O)oc2c1 | 30.8 | 88.5 | > 100 | 45.7 | 67.6 | 74.5 |  | 31.6 | 31.2 |  |  |  |  |  |  |  |  |  |  | 

SMILES | TGI (HCC-2998 colon) [µM] | TGI (NCI-H23 lung) [µM] | TGI (OVCAR-4 ovarian) [µM] | TGI (SF-295 CNS) [µM] | TGI (SR leukemia) [µM] | TGI (TK-10 renal) [µM] | TGI (MDA-MB-435) [µM] | TGI (OVCAR-3 ovarian) [µM] | TGI (SF-539 CNS) [µM] | TGI (UACC-62 melanoma) [µM] | GI50 (MDA-MB-435) [µM] | GI50 (NCI-H23 lung) [µM] | GI50 (OVCAR-4 ovarian) [µM] | GI50 (SF-295 CNS) [µM] | GI50 (SF-539 CNS) [µM] | GI50 (TK-10 renal) [µM] | GI50 (HCC-2998 colon) [µM] | GI50 (OVCAR-3 ovarian) [µM] | GI50 (SR leukemia) [µM] | GI50 (UACC-62 melanoma) [µM]
Nc1nc(Cl)c2ncn(CCCC(c3ccccc3)P(=O)(O)O)c2n1 (centres undefined) | > 100 | > 100 |  | > 100 | > 100 | > 100 |  | > 100 | > 100 | > 100 |  |  |  |  |  |  |  |  |  | 
C[C@]12CC[C@H]3[C@@H](CC=C4C[C@@H](O)CC[C@@]43C)[C@@H]1C/C(=C\c1cccnc1)[C@@H]2O |  | > 100 | 58.9 | 17.2 | > 100 | 66.8 | > 100 |  | 81.6 | 39.8 |  |  |  |  |  |  |  |  |  | 
CNC(=O)[C@H](Cc1ccccc1)NC(=O)N(CCC#N)CCN(C(=O)N[C@@H](Cc1ccccc1)C(=O)OC)c1ccccc1 |  | > 100 | > 100 | > 100 | > 100 | > 100 | > 100 | > 100 | > 100 | > 100 |  |  |  |  |  |  |  |  |  | 
Nc1nc(SCc2ccccc2Cl)c2ncn(C3OC(CO)C(O)C3O)c2n1 (centres undefined) | > 100 | > 100 | > 100 | > 100 | > 100 | > 100 |  | > 100 | > 100 | > 100 |  |  |  |  |  |  |  |  |  | 
CCCCCCCCCCCC1N=C(N)N=C(N)N1c1cccc(Br)c1 (centres undefined) | 2.42 | 2.69 |  | 19.4 |  | 2.94 | 1.79 |  |  |  | 0.523 | 1.18 |  | 1.16 |  | 1.56 | 1.16 |  |  | 
COc1cccc(NC(=O)CC(=O)NN)c1 |  | > 100 | > 100 | > 100 | > 100 | > 100 | > 100 | > 100 | > 100 | > 100 |  |  |  |  |  |  |  |  |  | 
C/C(=C\C(=O)Nc1ccc2n[nH]nc2c1)Nc1ccc2n[nH]nc2c1 | > 100 | > 100 | > 100 | > 100 | > 100 | > 100 |  | > 100 | > 100 | > 100 |  |  |  |  |  |  |  |  |  | 
CCOc1ccc2nc(NC(=O)C(=O)C3C(=O)C(CC4C(=O)c5ccccc5C4=O)C(=O)CC3(C)C)sc2c1 (centres undefined) | > 100 | > 100 | > 100 | > 100 |  | > 100 | > 100 | > 100 | > 100 | > 100 |  |  |  |  |  |  |  |  |  | 
CN(C)C(=O)C(F)(F)C(c1ccccc1Br)C1C(=O)N(C)C(=O)N(C)C1=O (centres undefined) | > 100 | > 100 | > 100 | > 100 |  | > 100 | > 100 | > 100 |  | > 100 |  |  |  |  |  |  |  |  |  | 
[CH3][Sn]([CH3])([CH3])[S]C(=S)N1CCOCC1 | 15.7 | 4.94 | 4.21 | 13.2 |  |  |  | 1.32 |  |  |  | 0.345 | 0.818 | 3.51 |  |  | 3.41 | 0.331 |  | 0.553
COC(=O)c1ccccc1CC1Cc2c(C)ccc(C)c2C1=O (centres undefined) | > 100 | 55.2 | > 100 | > 100 |  | 71.2 | 59.7 | > 100 | > 100 | > 100 |  |  |  |  |  |  |  |  |  | 
C[N+](C)(CCNc1ccc(NCC[N+](C)(C)Cc2ccc([N+](=O)[O-])cc2)c2c1C(=O)c1c(O)ccc(O)c1C2=O)Cc1ccc([N+](=O)[O-])cc1 | > 50 | > 50 | > 50 | > 50 |  | > 50 | > 50 | > 50 | > 50 | > 50 |  |  |  |  |  |  |  |  |  | 
CCOc1ccc(C2=NN(CC)C(=O)C(C3C(=O)N(c4ccccc4)N=C3C)C2)cc1 (centres undefined) | > 100 | > 100 | > 100 | > 100 |  | > 100 |  | > 100 | > 100 | > 100 |  |  |  |  |  |  |  |  |  | 
Brc1ccc2[nH]c3c(C4=NCCC4)nccc3c2c1 | 39.1 | > 79.7 | > 87.7 | > 36.7 |  |  |  | > 100 | > 25.4 | 30.5 |  |  |  |  |  |  |  |  |  | 
CCOC(=O)C(C)c1nc2cc(F)c(F)cc2[nH]c1=O (centres undefined) | > 100 | > 100 | > 100 | > 100 |  | > 100 | > 100 | > 100 | > 100 | > 100 |  |  |  |  |  |  |  |  |  | 
CNC(=S)N/N=C/C(C)=N/NC(=S)NC | > 100 | > 100 |  | > 100 |  | > 100 |  | > 100 | > 100 | > 100 |  |  |  |  |  |  |  |  |  | 

Source: PubChem BioAssay (NCI)
